Experimental data published in patent US11505543B2, “4-oxo-3,4-dihydroquinazoline compounds as inhibitors of human immunodeficiency virus replication” (VIIV HEALTHCARE UK (NO.5) LIMITED, priority 2018, dated 2022).
pEC50: −log10 of the molar value.

Assays:
[1] = test system: recombinant NL4-3 virus (nef section replaced with Renilla luciferase gene) in MT-2 cells; assay: HIV cell culture assay (antiviral activity, luciferase readout); type: cell-based; settings: Renilla, NL43, MT-2 cells infected for 4-5 days with recombinant NL4-3 Renilla luciferase virus, serial dilutions of compound
Procedure, shortened: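 EC50 was derived by median-effect curve fitting of luciferase activity. The signal comes from MT-2 cells infected for 4–5 days with 293T-produced NL4-3 reporter virus, nef partly replaced by Renilla luciferase, in the presence of serially diluted compound.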

[2] = Compound cytotoxicity, XTT-based colorimetric assay; type: cell-based; settings: human, uninfected MT2 cells, day 4, XTT
Procedure, shortened: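 Run under the antiviral-assay protocol but without virus. Viability was read on day 4 and CC50 values were derived from the readout.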

Row | SMILES | pEC50 [1] | CC50 at 4 day [2] [nM]
1 | Cc1cccc(-c2ccc3c(=O)n(-c4ccc(Cl)c5c(NS(=O)(=O)C6CC6)nn(CC(F)F)c45)c([C@H](Cc4cc(F)cc(F)c4)NC(=O)Cn4nc(C(F)F)c5c4C(F)(F)[C@@H]4C[C@H]54)nc3c2)n1 [Example 158, N-((S)-1-(3-(4-chloro-3-(cyclopropanesulfonamido)-1-(2,2-difluoroethyl)-1H-indazol-7-yl)-7-(6-methylpyridin-2-yl)-4-oxo-3,4-dihydroquinazolin-2-yl)-2-(3,5-difluorophenyl)ethyl)-2-((3bS,4aR)-3-(difluoromethyl)-5,5-difluoro-3b,4,4a,5-tetrahydro-1H-cyclopropa[3,4]cyclopenta[1,2-c]pyrazol-1-yl)acetamide] | 9.85 | > 500
2 | CCS(=O)(=O)c1ccccc1-c1ccc2c(=O)n(-c3ccc(Cl)c4c(NS(C)(=O)=O)nn(CC(F)F)c34)c([C@H](Cc3cc(F)cc(F)c3)NC(=O)Cn3nc(C(F)F)c4c3C(F)(F)[C@@H]3C[C@H]43)nc2c1 [Example 177, N-((S)-1-(3-(4-chloro-1-(2,2-difluoroethyl)-3-(methylsulfonamido)-1H-indazol-7-yl)-7-(2-(ethylsulfonyl)phenyl)-4-oxo-3,4-dihydroquinazolin-2-yl)-2-(3,5-difluorophenyl)ethyl)-2-((3bS,4aR)-3-(difluoromethyl)-5,5-difluoro-3b,4,4a,5-tetrahydro-1H-cyclopropa[3,4]cyclopenta[1,2-c]pyrazol-1-yl)acetamide] | 10.28 | > 500
3 | Cn1nc(NS(C)(=O)=O)c2c(Cl)ccc(-n3c([C@H](Cc4cc(F)cc(F)c4)NC(=O)Cn4nc(C(F)F)c5c4C(F)(F)[C@@H]4C[C@H]54)nc4cc(-c5cncnc5)ccc4c3=O)c21 (atropisomer, axis not shown; (aR)) [Example 84, N-((S)-1-(3-(4-chloro-1-methyl-3-(methylsulfonamido)-1H-indazol-7-yl)-4-oxo-7-(pyrimidin-5-yl)-3,4-dihydroquinazolin-2-yl)-2-(3,5-difluorophenyl)ethyl)-2-((3bS,4aR)-3-(difluoromethyl)-5,5-difluoro-3b,4,4a,5-tetrahydro-1H-cyclopropa[3,4]cyclopenta[1,2-c]pyrazol-1-yl)acetamide] | 10.17 | > 1000
4 | Cn1nc(NS(C)(=O)=O)c2c(Cl)ccc(-n3c([C@H](Cc4cc(F)cc(F)c4)NC(=O)Cn4nc(C(F)F)c5c4C(F)(F)[C@@H]4C[C@H]54)nc4cc(-c5cnc(F)c(F)c5)ccc4c3=O)c21 (atropisomer, axis not shown; (aR)) [Example 25, N-((S)-1-(3-(4-chloro-1-methyl-3-(methylsulfonamido)-1H-indazol-7-yl)-7-(5,6-difluoropyridin-3-yl)-4-oxo-3,4-dihydroquinazolin-2-yl)-2-(3,5-difluorophenyl)ethyl)-2-((3bS,4aR)-3-(difluoromethyl)-5,5-difluoro-3b,4,4a,5-tetrahydro-1H-cyclopropa[3,4]cyclopenta[1,2-c]pyrazol-1-yl)acetamide] | 9.60 | > 1000
5 | Cn1nc(NS(C)(=O)=O)c2c(Cl)ccc(-n3c([C@H](Cc4cc(F)cc(F)c4)NC(=O)Cn4nc(C(F)F)c5c4C(F)(F)[C@@H]4C[C@H]54)nc4cc(-c5ccc(Cl)cc5)ccc4c3=O)c21 (atropisomer, axis not shown; (aR)) [Example 51, N-((S)-1-(3-(4-chloro-1-methyl-3-(methylsulfonamido)-1H-indazol-7-yl)-7-(4-chlorophenyl)-4-oxo-3,4-dihydroquinazolin-2-yl)-2-(3,5-difluorophenyl)ethyl)-2-((3bS,4aR)-3-(difluoromethyl)-5,5-difluoro-3b,4,4a,5-tetrahydro-1H-cyclopropa[3,4]cyclopenta[1,2-c]pyrazol-1-yl)acetamide] | 8.48 | > 1000
6 | Cn1nc(NS(C)(=O)=O)c2c(Cl)ccc(-n3c([C@H](Cc4cc(F)cc(F)c4)NC(=O)Cn4nc(C(F)F)c5c4C(F)(F)[C@@H]4C[C@H]54)nc4cc(-c5cccc(F)c5F)ccc4c3=O)c21 (atropisomer, axis not shown; (aR)) [Example 68, N-((S)-1-(3-(4-chloro-1-methyl-3-(methylsulfonamido)-1H-indazol-7-yl)-7-(2,3-difluorophenyl)-4-oxo-3,4-dihydroquinazolin-2-yl)-2-(3,5-difluorophenyl)ethyl)-2-((3bS,4aR)-3-(difluoromethyl)-5,5-difluoro-3b,4,4a,5-tetrahydro-1H-cyclopropa[3,4]cyclopenta[1,2-c]pyrazol-1-yl)acetamide] | 9.20 | > 1000
7 | Cc1nccnc1-c1ccc2c(=O)n(-c3ccc(Cl)c4c(NS(C)(=O)=O)nn(CC(F)(F)F)c34)c([C@H](Cc3cc(F)cc(F)c3)NC(=O)Cn3nc(C(F)F)c4c3C(F)(F)[C@@H]3C[C@H]43)nc2c1 [Example 165, N-((S)-1-(3-(4-chloro-3-(methylsulfonamido)-1-(2,2,2-trifluoroethyl)-1H-indazol-7-yl)-7-(3-methylpyrazin-2-yl)-4-oxo-3,4-dihydroquinazolin-2-yl)-2-(3,5-difluorophenyl)ethyl)-2-((3bS,4aR)-3-(difluoromethyl)-5,5-difluoro-3b,4,4a,5-tetrahydro-1H-cyclopropa[3,4]cyclopenta[1,2-c]pyrazol-1-yl)acetamide] | 10.30 | > 500
8 | O=C(Cn1ccc(C2CC2)n1)N[C@@H](Cc1cc(F)cc(F)c1)c1nc2cc(-c3c(F)cccc3F)ccc2c(=O)n1-c1ccc(S(=O)(=O)N2CCOCC2)cc1 [Example 37, (S)-2-(3-cyclopropyl-1H-pyrazol-1-yl)-N-(2-(3,5-difluorophenyl)-1-(7-(2,6-difluorophenyl)-3-(4-(morpholinosulfonyl)phenyl)-4-oxo-3,4-dihydroquinazolin-2-yl)ethyl)acetamide] | 8.06 | > 1000
9 | O=C(Cn1nc(C(F)F)c2c1C(F)(F)[C@H]1C[C@@H]21)N[C@@H](Cc1cc(F)cc(F)c1)c1nc2cc(-c3ncccn3)ccc2c(=O)n1-c1ccc(S(=O)(=O)N2CCOCC2)cc1 [Example 27, 2-((3bR,4aS)-3-(difluoromethyl)-5,5-difluoro-3b,4,4a,5-tetrahydro-1H-cyclopropa[3,4]cyclopenta[1,2-c]pyrazol-1-yl)-N-((S)-2-(3,5-difluorophenyl)-1-(3-(4-(morpholinosulfonyl)phenyl)-4-oxo-7-(pyrimidin-2-yl)-3,4-dihydroquinazolin-2-yl)ethyl)acetamide] | 8.24 | > 1000
10 | Cc1ncc(-c2ccc3c(=O)n(-c4ccc(Cl)c5c(NS(C)(=O)=O)nn(C)c45)c([C@H](Cc4cc(F)cc(F)c4)NC(=O)Cn4nc(C(F)F)c5c4C(F)(F)[C@@H]4C[C@H]54)nc3c2)cn1 (atropisomer, axis not shown; (aR)) [Example 130, N-((S)-1-(3-(4-chloro-1-methyl-3-(methylsulfonamido)-1H-indazol-7-yl)-7-(2-methylpyrimidin-5-yl)-4-oxo-3,4-dihydroquinazolin-2-yl)-2-(3,5-difluorophenyl)ethyl)-2-((3bS,4aR)-3-(difluoromethyl)-5,5-difluoro-3b,4,4a,5-tetrahydro-1H-cyclopropa[3,4]cyclopenta[1,2-c]pyrazol-1-yl)acetamide] | 10.52 | > 500
11 | COc1c(F)cc(-c2ccc3c(=O)n(-c4ccc(Cl)c5c(NS(C)(=O)=O)nn(C)c45)c([C@H](Cc4cc(F)cc(F)c4)NC(=O)Cn4nc(C(F)F)c5c4C(F)(F)[C@@H]4C[C@H]54)nc3c2)cc1F (atropisomer, axis not shown; (aR)) [Example 70, N-((S)-1-(3-(4-chloro-1-methyl-3-(methylsulfonamido)-1H-indazol-7-yl)-7-(3,5-difluoro-4-methoxyphenyl)-4-oxo-3,4-dihydroquinazolin-2-yl)-2-(3,5-difluorophenyl)ethyl)-2-((3bS,4aR)-3-(difluoromethyl)-5,5-difluoro-3b,4,4a,5-tetrahydro-1H-cyclopropa[3,4]cyclopenta[1,2-c]pyrazol-1-yl)acetamide] | 9.04 | > 1000
12 | CC(C)n1ccc(CC(=O)N[C@@H](Cc2cc(F)cc(F)c2)c2nc3cc(-c4ccccc4F)ccc3c(=O)n2-c2ccc(Cl)c3c(NS(C)(=O)=O)nn(C)c23)n1 [Example 155, (S)-N-(1-(3-(4-chloro-1-methyl-3-(methylsulfonamido)-1H-indazol-7-yl)-7-(2-fluorophenyl)-4-oxo-3,4-dihydroquinazolin-2-yl)-2-(3,5-difluorophenyl)ethyl)-2-(1-isopropyl-1H-pyrazol-3-yl)acetamide] | 9.12 | > 1000
13 | Cc1ncc(-c2ccc3c(=O)n(-c4ccc(Cl)c5c(NS(=O)(=O)C6CC6)nn(CC(F)F)c45)c([C@H](Cc4cc(F)cc(F)c4)NC(=O)Cn4nc(C(F)F)c5c4C(F)(F)[C@@H]4C[C@H]54)nc3c2)cn1 [Example 157, N-((S)-1-(3-(4-chloro-3-(cyclopropanesulfonamido)-1-(2,2-difluoroethyl)-1H-indazol-7-yl)-7-(2-methylpyrimidin-5-yl)-4-oxo-3,4-dihydroquinazolin-2-yl)-2-(3,5-difluorophenyl)ethyl)-2-((3bS,4aR)-3-(difluoromethyl)-5,5-difluoro-3b,4,4a,5-tetrahydro-1H-cyclopropa[3,4]cyclopenta[1,2-c]pyrazol-1-yl)acetamide] | 10.22 | > 500
